These results are taken from patent US5506213A, “Adminstration of 2'-halo-2'-deoxy adenosine to treat inflammatory bowel disease” (priority 1994, dated 1996).

The test system of series [1] is HIV. Particulars: cultured human T lymphoblasts; cited from earlier work.
Series [2] deals with HIV. Particulars: cited from earlier work.
Series [3] concerns HIV. Kind of series: Inhibition of p24 (gag) production of HIV from MDM cells, 3-day assay. Type of series: cell-based. Conditions: 0.1-100 μM.
Series [4] relates to antigen-induced arthritis. As to the kind of experiment: Antigen-induced arthritis in rabbits. It is filed as in vivo. Conditions: CdA 1 mg/kg, tepoxalin 25 mg/kg, naproxen 5 mg/kg. Here is the method: Antigen-induced arthritis in rabbits is an animal model of rheumatoid arthritis. In this model, the rabbits are sensitized to an antigen such as ovalbumin or methylated bovine serum albumin in an adjuvant. Several weeks later, the same antigen is injected directly into the joints of the animal. […] Pettipher et al., Br. J. Exp. Path., 69:113-122 (1988).
Rabbits with antigen-induced arthritis were treated with CdA (1 mg/kg), tepoxalin (25 mg/kg) or naproxen (5 mg/kg).

The subject of the next series is adenosine deaminase. Particulars: cited from earlier work.
Series [5] has as its system Adenocarcinoma 755 (Ad755). Conditions: cited from earlier work.
A further series concerns CEM, wild type. Kind of series: Direct comparative cytotoxicity assay (Table II), CEM wild type. It is filed as cell-based, human. Particulars: CEM, wild type. The text has this:
(§1) The two compounds, CdA and CAFdA, were also compared for in vitro activity against another group of human cell lines in a direct comparative assay.
(§2) ^1 Concentration that produced 50 percent reduction in all numbers
(§3) ^2 CEM cells are T lymphoblasts; DHL9 cells are lymphoblasts.

The subject of series [6] is monocyte-like cell line HL-60. Kind of series: cells. Conditions: Homo sapiens.
Description: (§5) Seven different cell lines were treated with varying concentrations of 2-chloro-9,1'-beta-2'-deoxy-2'-fluoro-D-arabinofuranosyladenine (CAFdA) to determine percent viability. CAFdA concentrations ranging from 0 to about 260 nM were used to treat each cell line in vitro.
A further series concerns monocytes. Kind of series: Direct comparative cytotoxicity assay (Table II), monocytes. It is filed as cell-based, human. Conditions: Monocytes.
From the text: as §1, §2

Series [7] has as its system monocyte-like cell line THP-1. As to the kind of experiment: cells. Conditions: Homo sapiens.
Description: as §5
Series [8] concerns DHL9, Increased ribonucleotide reduction. Kind of series: Direct comparative cytotoxicity assay (Table II), DHL9 increased ribonucleotide reduction. Type of series: cell-based, human. Particulars: DHL9, Increased ribonucleotide reduction.
From the text: as §1, §2, §3

A further series relates to T cell line CEM. Kind of series: cells. Particulars: Homo sapiens.
The next series has as its system DHL9, wild type. Kind of series: Direct comparative cytotoxicity assay (Table II), DHL9 wild type. It is filed as cell-based, human. Particulars: DHL9, wild type.
From the text: as §1, §2, §3

Series [9] relates to monocyte-like cell line U937. Kind of series: cells. Particulars: Homo sapiens, U-937.
Description: as §5
Series [10] concerns delayed-type hypersensitivity (DTH) response. Kind of series: Delayed-type hypersensitivity to ovalbumin in guinea pigs, oral and intraperitoneal treatment. It is filed as in vivo, guinea pig. Particulars: dexamethasone 5 mg/kg, CdA or CAFdA 1 mg/kg, 24 and 48 hours, p<0.01. How it is done:
(§4) Delayed-type hypersensitivity (DTH) is a cell-mediated immune response that typically takes longer than 12 hours to develop. In the guinea pig, a DTH reaction to an antigen can be established by first immunizing the animal with the antigen in an adjuvant such as Freund's complete adjuvant. Subsequent intradermal injection of the antigen causes no change for at least 10 hours, after which there is a gradual increase in erythema and swelling in response to antigen injection. This response peaks about at about 24 hours after challenge, then gradually subsides.
Histologically, the inflammatory response is characterized by intense inundation of the site with mononuclear cells, of which about half are lymphocytes and the other half monocytes. DTH is therefore an indicator of a monocyte-mediated immune reaction.
In one study, guinea pigs were sensitized to ovalbumin in adjuvant. The animals were then treated either orally or intraperitoneally with saline (control), dexamethasone (5 mg/kg), CdA (1 mg/kg) or CAFdA (1 mg/kg). The animals were then injected with ovalbumin intradermally to elicit the DTH response. The mean area of the swelling size was measured for each animal (nine or ten animals were treated for each protocol).

Another series relates to T cell line Molt-4. Kind of series: cells. Conditions: Homo sapiens.
The test system of series [11] is Peripheral blood lymphocytes. As to the kind of experiment: Direct comparative cytotoxicity assay (Table II), peripheral blood lymphocytes. It is filed as cell-based, human. Particulars: Peripheral blood lymphocytes.
From the text: as §1, §2

Series [12] concerns CEM, Increased 5'-nucleoside. Kind of series: Direct comparative cytotoxicity assay (Table II), CEM increased 5'-nucleoside. Conditions: CEM, Increased 5'-nucleoside. It is filed as cell-based, human.
From the text: as §1, §2, §3

For series [13] the following is noted: pH value of 1 at 37 degrees C.; cited from earlier work.
Series [14] deals with delayed-type hypersensitivity (DTH) reaction. As to the kind of experiment: Delayed-type hypersensitivity to ovalbumin in guinea pigs, different dosages of CdA. Type of series: in vivo, guinea pig. Conditions: dexamethasone 5 mg/kg; 24 and 48 hours post-challenge; p<0.01. How it is done:
as §4
In another study, the effects of different dosages of CdA on the DTH reaction were examined. Guinea pigs sensitized to ovalbumin were treated with saline (control), dexamethasone (5 mg/kg), and CdA at 1 mg/kg or 0.1 mg/kg. Three days after treatment, the animals were challenged with ovalbumin intradermally. The areas of the skin lesions were measured at 6, 24, and 48 hours after challenge.

[15] abbreviates: Homo sapiens, 120 h, read-out: ID50: concentration that produced 50 percent reduction in all numbers after five days.

Structures are written as SMILES. A value given as a limit tells only on which side of the number the result lay.

Description for T cell line CEM: as §5
Description for T cell line Molt-4: as §5

On to `Cc1cn([C@H]2C[C@H](N=[N+]=[N-])[C@@H](CO)O2)c(=O)[nH]c1=O` [AZT, 3'-azido-3'-deoxythymidine], for which, in the series with HIV [1], the “replication of HIV” value was “blocked the replication of HIV”. Further, the “virus isolation rates from peripheral blood cells” value with HIV [2] (clinical trials with AZT) is recorded as “no effect”. Further, the “CD4 (T4) peripheral blood cell counts” value in the series with HIV [2] (patients with AIDS or AIDS-related complex) is “elevation of CD4 (T4) peripheral blood cell counts”. In the series on HIV [2] (patients with AIDS or AIDS-related disease complexes), the tolerability result is given as “well tolerated”. Also, the “inhibition of p24 (gag) production” value in the series with HIV [3] is “none of those compounds provided any inhibition”.

As for `COc1ccc2cc([C@H](C)C(=O)O)ccc2c1` [Naproxen, naproxen, reference compound], the “pathological examination of joints compared to untreated controls” value in [4] was “appeared to exacerbate the inflammation and tissue destruction”.

Turning to `Nc1nc(F)nc2c1ncn2[C@@H]1O[C@H](CO)[C@@H](O)[C@H]1O` [2-fluoroadenosine], in the series on adenosine deaminase, the “substrate behaviour toward adenosine deaminase” value was “negligible activity”. Further, the tolerated dose result in series [5] (C57 black mice implanted with Ad755) was “about 1 milligram per kilogram of body weight”. Moreover, the “antitumor activity at the tolerated level” value in series [5] (against Ad755 as well as leukemia L1210 and the Erlich ascites tumor) was “inactive”.

As to `Nc1nc(Cl)nc2c1ncn2[C@@H]1O[C@H](CO)[C@@H](O)[C@@H]1F` [CAFdA, 2-chloro-9,1'-beta-2'-deoxy-2'-fluoro-D-arabinofuranosyladenine], the “ID50 ratio CAFdA / CdA” value with CEM, wild type was determined as 3.1; in the series with monocytes it was 2.1; in series [8], 15; in the series with DHL9, wild type, 1.9; in [11] it was 1.9; in [12], 2.1. Besides, the IC50 amounted to 67 nM with CEM, wild type (setting [15]); 47 nM in the series with monocytes (Homo sapiens, Monocyte, 120 h, read-out: ID50: concentration that produced 50 percent reduction in all numbers after five days); 6 µM in series [8] (setting [15]); 150 nM in the series on DHL9, wild type (setting [15]); 18 nM in series [11] (Homo sapiens, Lymphocyte, 120 h, read-out: ID50: concentration that produced 50 percent reduction in all numbers after five days). Further, the viability at 0.05 µM (in [6]; in series [7]; in the series with T cell line CEM) was ≤ 60% throughout. For the same compound, the viability at 0.06 µM (in series [6]; in series [7]; in the series with T cell line CEM; in series [9]; in the series with T cell line Molt-4) was < 20% throughout. For the same compound, the viability at 0.13 µM (in series [6]; in [7]; in the series with T cell line CEM; in series [9]; in the series with T cell line Molt-4) was < 10% throughout. Also, the “swelling after ovalbumin challenge compared to saline control” value in series [10] (intraperitoneal) and in series [10] (oral) was “significant inhibition of swelling” each time.

Take `Nc1ncnc2c1ncn2[C@H]1CC[C@@H](CO)O1` [ddA, 2',3'-dideoxyadenosine]: the “substrate behaviour toward adenosine deaminase” value with adenosine deaminase is “known substrate for adenosine deaminase”. Also, the “inhibition of p24 (gag) production” value in the series with HIV [3] was “none of those compounds provided any inhibition”. Besides, the half-time in series [13] was 35 s.

As for `C[C@@H]1C[C@H]2[C@@H]3CCC4=CC(=O)C=C[C@]4(C)[C@@]3(F)[C@@H](O)C[C@]2(C)[C@@]1(O)C(=O)CO` [dexamethasone, reference compound], the “swelling after ovalbumin challenge compared to saline control” value in series [10] (intraperitoneal) and in series [10] (oral) was “significant inhibition of swelling” each time. Moreover, in series [14], the “swelling compared to control saline treated animals” value is listed as “effective at inhibiting swelling”.
